# How the values were obtained:
# [1] = Tested for the 50% inhibition level against [125I]- gastrin binding to guinea pig gastric glands; format: functional, tissue-based, Cavia porcellus, Stomach
# [2] = molecular target: T1, Gastrin/cholecystokinin type B receptor (Rattus norvegicus, UniProt P30553); assay: Tested for the 50% inhibition level against [125I]- gastrin binding in AR42J cells; format: cell-based, AR-42J
# T1 sequence (P30553 whole entry): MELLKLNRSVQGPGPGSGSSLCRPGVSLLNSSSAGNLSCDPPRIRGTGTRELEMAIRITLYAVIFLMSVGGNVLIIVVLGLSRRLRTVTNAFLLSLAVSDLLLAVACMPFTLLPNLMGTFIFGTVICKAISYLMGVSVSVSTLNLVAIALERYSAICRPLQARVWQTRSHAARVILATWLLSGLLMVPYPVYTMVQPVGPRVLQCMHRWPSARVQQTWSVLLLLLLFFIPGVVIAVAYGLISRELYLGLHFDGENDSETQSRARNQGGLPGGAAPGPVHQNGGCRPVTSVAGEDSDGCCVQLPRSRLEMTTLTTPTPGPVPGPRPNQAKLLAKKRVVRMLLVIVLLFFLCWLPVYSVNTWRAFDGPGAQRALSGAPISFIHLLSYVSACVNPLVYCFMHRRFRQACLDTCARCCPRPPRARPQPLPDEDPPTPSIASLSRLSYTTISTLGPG
SMILES,EC50 [1] [µM],EC50 [2] [µM]
O=C(CCC(=O)N(Cc1ccccc1)/N=N/CCCl)NCCC(=O)NC(Cc1c[nH]c2ccccc12)C(=O)O (stereo not drawn),63,200
CSCC[C@H](NC(=O)[C@H](Cc1c[nH]c2ccccc12)NC(=O)CNC(=O)[C@H](Cc1ccc(O)cc1)NC(=O)[C@H](C)NC(=O)[C@H](CCC(=O)O)NC(=O)[C@H](CCC(=O)O)NC(=O)[C@H](CCC(=O)O)NC(=O)[C@H](CCC(=O)O)NC(=O)[C@H](CCC(=O)O)NC(=O)[C@H](CC(C)C)NC(=O)[C@H](Cc1c[nH]c2ccccc12)NC(=O)[C@@H]1CCCN1C(=O)CNC(=O)[C@@H](N)CCC(=O)O)C(=O)N[C@@H](CC(=O)O)C(=O)N[C@@H](Cc1ccccc1)C(N)=O [GASTRIN],0.6,–

# — ChEMBL document CHEMBL1127393 (J Med Chem, 1994)
